Read-outs that look alike come from different tables or passages of the source.
Assays:
[1] = system: CFU-GM, BFU-E and CFU-GEMM progenitor cells; conditions: 80 μg/kg s.c.; for Fold change compared to T = 0, BFU-E, methylcellulose culture, MEAN / Fold change compared to T = 0, CFU-GEMM, methylcellulose culture, MEAN / Fold change compared to T = 0, CFU-GM, methylcellulose culture, MEAN: average of 5 donors
Protocol: (§1) Five healthy human volunteers having initial white blood cell counts of 4,500-7,500 cells/mm^3 were used in the study. […] Blood samples were obtained via catheter prior to the dose, and at various times up to 24 hours after dosing.
(§2) All progenitor cell results are based on the scoring of 3 culture plates per assay per point.
(§3) For the progenitor cell numbers and cycling status, the numbers of CFU-GM, BFU-E and CFU-GEMM in methylcellulose cultures by stimulation of the cells with 1 Unit (U)/ml recombinant human (rhu) erythropoietin, 100 U/ml rhu granulocyte-macrophage colony stimulating factor (GM-CSF), 100 U/ml rhu interleukin-3 (IL-3) and 50 ng/ml rhu steel factor (SLF=stem cell factor (SCF)). The CFU-GM were also evaluated in agar cultures stimulated with 100 U/ml rhu GM-CSF and 50 ng/ml rhu SLF. For both types of assays, colonies were scored after 14 day incubation in a humidified atmosphere with 5% CO2 and lowered (5%) O2 tension. Cell cycling status of progenitors was measured using a high specific activity tritiated thymidine kill technique as previously described (Broxmeyer, H. E., et al., Exp. Hematol. (1989) 17:455-459).

CFU-GM progenitor cells = conditions: average of 5 donors, 80 μg/kg s.c.
Protocol: as §1, §2, §3

[2] = system: progenitor cells (CFU-GM, BFU-E, CFU-GEMM) per mL of blood; conditions: for Absolute Number Progenitors Per ML Blood, BFU-E / Absolute Number Progenitors Per ML Blood, CFU-GEMM / Absolute Number Progenitors Per ML Blood, CFU-GM: 1 hour post administration; for Absolute Progenitors Per ML Blood, BFU-E / Absolute Progenitors Per ML Blood, CFU-GEMM / Absolute Progenitors Per ML Blood, CFU-GM: 5 mg/Kg single s.c.; for Absolute Progenitors Per ML Blood, BFU-E / Absolute Progenitors Per ML Blood, CFU-GEMM / Absolute Progenitors Per ML Blood, CFU-GM / Fold Change Compared to Time 0, progenitors BFU-E / Fold Change Compared to Time 0, progenitors CFU-GEMM / Fold Change Compared to Time 0, progenitors GM: methylcellulose culture; for Fold Change Compared to Time 0, progenitors BFU-E / Fold Change Compared to Time 0, progenitors CFU-GEMM / Fold Change Compared to Time 0, progenitors GM: mice
Protocol: Progenitors were stimulated to form colonies in vitro with the combination of 1 U/ml rhu Epo, 50 ng/ml rhu SLF, 5% ^Vol/Vol pokeweed mitogen mouse spleen cell conditioned medium (PWMSCM), and 0.1 mM hemin. Plates were scored 7 days after incubation.

white blood cell count = conditions: all patients, i.v. 10-80 μg/kg; 5-10 hours after administration
Protocol: Eleven human patients having initial white blood cell counts of 4,000-6,500 cells/mm^3 were used in the study. […] Aliquots from this stock solution were added to 50-ml bags of 0.9% saline for intravenous injection in amounts to achieve the desired dosage levels (10 μg/kg-80 μg/kg).
The subjects described in this example already contained an indwelling peripheral intravenous catheter. […] Blood samples were obtained prior to the dose, and at various times up to 24 hours after dose administration.
Three patients were administered dosages of 10 μg/kg (open circles); 3 patients were administered dosages of 20 μg/kg (solid circles); 3 patients were administered 40 μg/kg (open triangles); and 2 patients were administered 80 μg/kg (closed triangles).

white blood cells = conditions: human volunteers; 80 μg/kg s.c.
Protocol: as §1
The blood samples were evaluated for total white blood cells, CD34 positive progenitor cells (via FACS analysis) as a percentage of total white blood cells, as well as the absolute numbers per mL and cycling status of granulocyte macrophage (CFU-GM), erythroid (BFU-E), and multipotential (CFU-GEMM) progenitor cells.

WBC counts = conditions: HIV-infected patients; infusion 2.5 or 5.0 μg/kg/hr
[3] = system: WBC and circulating CD34+ progenitor/stem cells; conditions: Phase 1 study, single dose of 80 μg/kg; cited from earlier work
bone marrow stem cells = conditions: rats, coronary ligation; given within hours after cardiac ischemia, with or without rhG-CSF
Protocol: Adult rats are anesthetized and a thoracotomy is performed. The descending branch of the left coronary artery is ligated and not reperfused. […] Control rats are not treated with the reagents. The animals are monitored at one-week intervals by echocardiography and MRI. […] On the day of sacrifice, the hemodynamic functions are analyzed for left ventricle-end diastolic pressure, left ventricle-developed pressure and the rate of rise and fall of left ventricle pressure. The heart is then arrested in diastole and perfused via the abdominal aorta to flush residual blood from the vascular network of the myocardium. […] Several slices are made through the fixed heart and these are embedded in paraffin and sections. The sections are stained and analyzed by light microscopy to determine the size of the infarct in the treated and control animals. […] The immunohistochemical analysis involves the identification of transcription factors and surface markers expressed in early stages of myocyte development.

With c1cc(CN2CCCNCCNCCCNCC2)ccc1CN1CCCNCCNCCCNCC1 [AMD3100, 1,1′-[1,4-phenylene-bis(methylene)]-bis-1,4,8,11-tetraazacyclotetradecane] the “fold change from T=0, progenitors BFU-E, methylcellulose culture” value ([1]; P2, T = 1 hour) was 1.43 fold, the “Absolute # of Progenitors per ML, BFU-E” value ([1]; P4, T = 9 hours) was 1343 per ML and the “Fold change compared to T = 0, BFU-E, methylcellulose culture, MEAN” value (from here on “Fold change compared to T = 0, BFU-E”) ([1]; T = 1 hour) was 1.99 fold. For the same molecule, the “Fold change compared to T = 0, CFU-GEMM, methylcellulose culture, MEAN” value (shortened to “Fold change compared to T = 0, CFU-GEMM”) ([1]; T = 1 hour) was 2.32 fold, the “Fold change compared to T = 0, CFU-GM, methylcellulose culture, MEAN” value ([1]; T = 1 hour) was 4.77 fold and the “Fold change compared to T = 0, BFU-E” value ([1]; T = 3 hours) was 3.21 fold. For the same molecule, the “Fold change compared to T = 0, CFU-GEMM” value ([1]; T = 3 hours) was 4.33 fold, the “Fold change compared to T = 0, CFU-GM, methylcellulose culture, MEAN” value ([1]; T = 3 hours) was 13.66 fold and the “Fold change compared to T = 0, BFU-E” value ([1]; T = 6 hours) was 6.01 fold. The “Fold change compared to T = 0, CFU-GEMM” value ([1]; T = 6 hours) was 10.07 fold, the “Fold change compared to T = 0, CFU-GM, methylcellulose culture, MEAN” value ([1]; T = 6 hours) was 21.71 fold and the “Fold change compared to T = 0, BFU-E” value ([1]; T = 9 hours) was 4.34 fold. The “Fold change compared to T = 0, CFU-GEMM” value ([1]; T = 9 hours) was 5.25 fold, the “Fold change compared to T = 0, CFU-GM, methylcellulose culture, MEAN” value ([1]; T = 9 hours) was 10.47 fold and the “Fold change compared to T = 0, BFU-E” value ([1]; T = 24 hours) was 1.26 fold. The “Fold change compared to T = 0, CFU-GEMM” value ([1]; T = 24 hours) was 1.53 fold, the “Fold change compared to T = 0, CFU-GM, methylcellulose culture, MEAN” value ([1]; T = 24 hours) was 1.56 fold and the “Fold change compared to T = 0, CFU-GM, agar culture, MEAN” value (shortened to “Fold change … agar culture, MEAN”) (CFU-GM progenitor cells; T = 1 hour) was 2.81 fold. For the same molecule, the “Fold change … agar culture, MEAN” value (CFU-GM progenitor cells; T = 3 hours) was 8.54 fold, the “Fold change … agar culture, MEAN” value (CFU-GM progenitor cells; T = 6 hours) was 17.93 fold and the “Fold change … agar culture, MEAN” value (CFU-GM progenitor cells; T = 9 hours) was 10.25 fold. The “Fold change … agar culture, MEAN” value (CFU-GM progenitor cells; T = 24 hours) was 2.08 fold, the “Absolute Number Progenitors Per ML Blood, BFU-E” value ([2]; 1 mg/kg single s.c.) was 62 per ML blood and the “Absolute Number Progenitors Per ML Blood, CFU-GEMM” value ([2]; 1 mg/kg single s.c.) was 27.1 per ML blood. The “Absolute Number Progenitors Per ML Blood, CFU-GM” value ([2]; 1 mg/kg single s.c.) was 424 per ML blood, the “Absolute Number Progenitors Per ML Blood, BFU-E” value ([2]; 2.5 mg/kg single s.c.) was 98.9 per ML blood and the “Absolute Number Progenitors Per ML Blood, CFU-GEMM” value ([2]; 2.5 mg/kg single s.c.) was 70.6 per ML blood. The “Absolute Number Progenitors Per ML Blood, CFU-GM” value ([2]; 2.5 mg/kg single s.c.) was 687.6 per ML blood, the “Absolute Progenitors Per ML Blood, BFU-E” value ([2]; 15″) was 134.5 per ML blood and the “Absolute Progenitors Per ML Blood, CFU-GEMM” value ([2]; 15″) was 90.4 per ML blood. For the same molecule, the “Absolute Progenitors Per ML Blood, CFU-GM” value ([2]; 15″) was 791.6 per ML blood, the “Absolute Progenitors Per ML Blood, BFU-E” value ([2]; 30″) was 209.3 per ML blood and the “Absolute Progenitors Per ML Blood, CFU-GEMM” value ([2]; 30″) was 113.5 per ML blood. The “Absolute Progenitors Per ML Blood, CFU-GM” value ([2]; 30″) was 1805.5 per ML blood, the “Absolute Progenitors Per ML Blood, BFU-E” value ([2]; 120″) was 102.3 per ML blood and the “Absolute Progenitors Per ML Blood, CFU-GEMM” value ([2]; 120″) was 47.6 per ML blood. For the same molecule, the “Absolute Progenitors Per ML Blood, CFU-GM” value ([2]; 120″) was 828.7 per ML blood, the “Absolute Number Progenitors Per ML Blood, BFU-E” value ([2]; 5 mg/kg single s.c.) was 92.8 per ML blood and the “Absolute Number Progenitors Per ML Blood, CFU-GEMM” value ([2]; 5 mg/kg single s.c.) was 69.5 per ML blood. The “Absolute Number Progenitors Per ML Blood, CFU-GM” value ([2]; 5 mg/kg single s.c.) was 608.4 per ML blood, the “Absolute Number Progenitors Per ML Blood, BFU-E” value ([2]; 10 mg/kg single s.c.) was 120.5 per ML blood and the “Absolute Number Progenitors Per ML Blood, CFU-GEMM” value ([2]; 10 mg/kg single s.c.) was 79.8 per ML blood. For the same molecule, the “Absolute Number Progenitors Per ML Blood, CFU-GM” value ([2]; 10 mg/kg single s.c.) was 825.6 per ML blood, the “Fold Change Compared to Time 0, progenitors BFU-E” value ([2]; time 2′) was 2.07 fold and the “Fold Change Compared to Time 0, progenitors CFU-GEMM” value ([2]; time 2′) was 1.85 fold. For the same molecule, the “Fold Change Compared to Time 0, progenitors GM” value ([2]; time 2′) was 2.86 fold, the “Fold Change Compared to Time 0, progenitors BFU-E” value ([2]; time 15″) was 2.72 fold and the “Fold Change Compared to Time 0, progenitors CFU-GEMM” value ([2]; time 15″) was 3.51 fold. For the same molecule, the “Fold Change Compared to Time 0, progenitors GM” value ([2]; time 15″) was 2.73 fold, the “Fold Change Compared to Time 0, progenitors BFU-E” value ([2]; time 30″) was 4.24 fold and the “Fold Change Compared to Time 0, progenitors CFU-GEMM” value ([2]; time 30″) was 4.41 fold. For the same molecule, the “Fold Change Compared to Time 0, progenitors GM” value ([2]; time 30″) was 6.23 fold, the “change in white blood cell count” value (white blood cell count) was “marked increase in white blood cell count” and the “time post-administration at which elevation of white blood cell count maximized” value (white blood cells) was 6 h.

In the case of c1cc(CN2CCCNCCNCCCNCC2)ccc1CN1CCCNCCNCCCNCC1 [AMD-3100], the “time after discontinuation of the infusion at which WBC counts returned to baseline” value (WBC counts) is listed as 7 days, the WBC count [3] is listed as 17,000 /μl and the “effect on cardiac remodeling, scar formation and myocardium” value (bone marrow stem cells) is listed as “block to cardiac remodeling and scar formation”.

Source: US7863293B2, “CXCR4 chemokine receptor binding compounds” (Genzyme Corporation, priority 2003, dated 2011)
